Results on 1 compound are retold here after patent EP3820845B1, “NOVEL, NEW GENERATION INHIBITOR COMPOUNDS SPECIFIC TO GST P1 ENZYME” (HACETTEPE ÜNIVERSITESI, priority 2018, dated 2020).

Usually IC50 stands for the midpoint of a concentration-inhibition curve. One may read the Ki as a dissociation constant, usually derived from enzyme kinetics or from competition with a known ligand.

Like-named read-outs stand apart in the source and are kept apart here.

Test [1] addresses human-GST P1 (hGST P1) (Homo sapiens, UniProt P09211). As to the kind of experiment: Spectrophotometric GST P1 enzyme inhibition test (GSH/CDNB conjugation), IC50 determination. In kind it is biochemical. Conditions: spectrophotometric enzyme activity, ctapm1 concentrations between 0-100 µM; GraphPrism calculation; Figure 1. As to the method:
Pure human-GST P1 (hGST P1) enzyme has been used as target protein in enzyme inhibition tests. "Ethacrynic acid" has been used as the model inhibitor compound. Ctapm1 (compound 1) compound which is a tetrahydrocarbazole derivative has been used as the basic precursor inhibitor for compounds that are designed, synthesized and are planned to be synthesized with advanced modifications.
The enzyme activity was determined over the activity of GST P1 enzyme which conjugated GSH and 1-chloro-2,4-dinitrobenzene (CDNB). The test medium was prepared to include 100 mM sodium phosphate buffer (pH 6.5) comprising 1 mM EDTA, 1 mM GSH, 1 mM CDNB and 5% ethanol and the temperature of the medium was determined as 30°C. The formation of a conjugate (GS-DNB) was monitored for 1 minute over the absorbance increase at 340 nm wavelength. The specific activity was calculated using 0.0096 µM^-1 cm ^-1 absorption coefficient. […] [formula] ΔA: Absorbance change (A340/minute.ml) Vr: Reaction volume (ml) d: Dilution factor ε: Molar absorption coefficient (9,6 mM^-1, cm^-1) ℓ: Light path (0,524 cm for 1 cm microplate measurements for Standard spectrophotometry vessel, Ve: Volume added to the stock enzyme reaction medium (ml) […]
In order to determine IC50 values of compounds both the standard spectrophotometric method and the microplate kinetic reading method was used together. […]

Test [2] addresses GST P1 (Homo sapiens, UniProt P09211). As to the kind of experiment: Enzyme kinetic analysis with GST P1 (GSH- and CDNB-dependent Michaelis-Menten / Lineweaver-Burk), Ki inhibition constants. The format is biochemical. Conditions: Figure 2. As for the experimental part:
Figure 1. IC50 dose(Log)-inhibition graph of the spectrophotometric enzyme activity of GST P1 at concentrations of the ctapm1 compound between 0-100 µM. Figure 2. kinetic analysis results of ctapm1 compound with GST P1. A and C are the GSH and CDNB dependent Michaelis-Menten graphic of the ctapm1 compound and B and D are the GSH and CDNB dependent Lineweaver-Burk graphs of the ctapm1 compound. Figure 3. The schematic view of the THC fragment, its load distribution and elemental features. 2-dimension schematic view (a) of "2,3,4,9-tetrahydro-1H-carbazole"in (shortly tetra hydro or THC) and the load distribution (b) of the THC fragment. […]
The enzyme activity was determined over the activity of GST P1 enzyme which conjugated GSH and 1-chloro-2,4-dinitrobenzene (CDNB). The test medium was prepared to include 100 mM sodium phosphate buffer (pH 6.5) comprising 1 mM EDTA, 1 mM GSH, 1 mM CDNB and 5% ethanol and the temperature of the medium was determined as 30°C. The formation of a conjugate (GS-DNB) was monitored for 1 minute over the absorbance increase at 340 nm wavelength. The specific activity was calculated using 0.0096 µM^-1 cm ^-1 absorption coefficient. […]

Sequence of GST P1 (P09211 2-210 limits assumed): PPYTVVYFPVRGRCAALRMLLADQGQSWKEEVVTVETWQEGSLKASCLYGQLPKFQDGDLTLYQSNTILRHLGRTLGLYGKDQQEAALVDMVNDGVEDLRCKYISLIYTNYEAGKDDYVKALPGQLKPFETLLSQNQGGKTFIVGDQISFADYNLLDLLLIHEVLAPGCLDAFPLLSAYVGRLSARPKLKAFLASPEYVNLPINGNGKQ
Sequence of human-GST P1 (hGST P1) (P09211 2-210 limits assumed): as above

`S=c1[nH]nc(C2CCc3[nH]c4ccccc4c3C2)[nH]1` (stereo not drawn) [Compound 1, 3-(2,3,4,9-tetrahydro-1H-carbazole-3-yl)-1H-1,2,4-triazole-5(4H)-thione]: the IC50 in test [1] was 1.07 µM. Further, the Ki in test [2] (competitive type, read-out: Ki inhibition constant against CDNB) was determined as 1.7 µM; in test [2] (non-competitive type, read-out: Ki inhibition constant against GSH), 1.74 µM.
